Data as given in ChEMBL document CHEMBL5137093, “Improving Drug Delivery While Tailoring Prodrug Activation to Modulate Cmax and Cmin by Optimization of (Carbonyl)oxyalkyl Linker-Based Prodrugs of Atazanavir” (J Med Chem, 2022).

Key:
[1] = Fold ratio of total AUC of Atazanavir in Sprague-Dawley rat at 1 ml/kg,iv measured upto 24 hrs by UPLC-MS/MS analysis; assay type: ADME; conditions: in vivo
[2] = Ratio of Cmax/Cmin of Atazanavir in Sprague-Dawley rat at 25 ml/kg,po measured after 24 hrs by UPLC-MS/MS analysis; assay type: ADME; conditions: in vivo
[3] = Tmax in Sprague-Dawley rat at 3 ml/kg,po measured upto 24 hrs by UPLC-MS/MS analysis; assay type: ADME; conditions: in vivo
[4] = AUClast in Sprague-Dawley rat at 25 ml/kg,po measured upto 24 hrs by UPLC-MS/MS analysis; assay type: ADME; design: time < 24 hrs, dose 25 ml/kg, route po; conditions: in vivo
[5] = Clearance in Sprague-Dawley rat at 1 ml/kg,iv measured upto 24 hrs by UPLC-MS/MS analysis; assay type: ADME; conditions: in vivo
[6] = Half life in Sprague-Dawley rat at 1 ml/kg,iv measured upto 24 hrs by UPLC-MS/MS analysis; assay type: ADME; conditions: in vivo
[7] = Tmax in Sprague-Dawley rat at 25 ml/kg,po measured upto 24 hrs by UPLC-MS/MS analysis; assay type: ADME; conditions: in vivo
[8] = Ratio of Cmax/Cmin of Atazanavir in Sprague-Dawley rat at 1 ml/kg,iv measured after 24 hrs by UPLC-MS/MS analysis; assay type: ADME; conditions: in vivo
[9] = Relative AUC ratio of Atazanavir in Sprague-Dawley rat at 25 ml/kg,po measured upto 24 hrs by UPLC-MS/MS analysis; assay type: ADME; conditions: in vivo
[10] = Relative AUC ratio of Atazanavir in Sprague-Dawley rat at 3 ml/kg,po measured upto 24 hrs by UPLC-MS/MS analysis; assay type: ADME; conditions: in vivo
[11] = Relative Cmax ratio of Atazanavir in Sprague-Dawley rat at 25 ml/kg,po measured upto 24 hrs by UPLC-MS/MS analysis; assay type: ADME; conditions: in vivo
[12] = target: Voltage-gated inwardly rectifying potassium channel KCNH2 (Homo sapiens, UniProt Q12809); test: Inhibition of human ERG by patch-clamp assay; assay type: toxicity
[13] = Relative Cmax ratio of Atazanavir in Sprague-Dawley rat at 1 ml/kg,iv measured upto 24 hrs by UPLC-MS/MS analysis; assay type: ADME; conditions: in vivo
[14] = Cmax in Sprague-Dawley rat at 25 ml/kg,po measured upto 24 hrs by UPLC-MS/MS analysis; assay type: ADME; design: time < 24 hrs, dose 25 ml/kg, route po; conditions: in vivo
[15] = Aqueous solubility of compound at pH 1 by UPLC analysis; assay type: physicochemical; conditions: buffer
[16] = Ratio of Cmax/Cmin of Atazanavir in Sprague-Dawley rat at 3 ml/kg,po measured after 24 hrs by UPLC-MS/MS analysis; assay type: ADME; conditions: in vivo
[17] = Fold ratio of total AUC of Atazanavir in Sprague-Dawley rat at 25 ml/kg,po measured upto 24 hrs by UPLC-MS/MS analysis; assay type: ADME; conditions: in vivo
[18] = target: T1, UDP-glucuronosyltransferase 1A1 (Homo sapiens, UniProt P22309); test: Inhibition of UGT1A1 in human liver microsomes using beta-estradiol as substrate incubated for 40 mins by LC-MS/MS analysis; design: species or system Microsome
T1 sequence (P22309 whole entry): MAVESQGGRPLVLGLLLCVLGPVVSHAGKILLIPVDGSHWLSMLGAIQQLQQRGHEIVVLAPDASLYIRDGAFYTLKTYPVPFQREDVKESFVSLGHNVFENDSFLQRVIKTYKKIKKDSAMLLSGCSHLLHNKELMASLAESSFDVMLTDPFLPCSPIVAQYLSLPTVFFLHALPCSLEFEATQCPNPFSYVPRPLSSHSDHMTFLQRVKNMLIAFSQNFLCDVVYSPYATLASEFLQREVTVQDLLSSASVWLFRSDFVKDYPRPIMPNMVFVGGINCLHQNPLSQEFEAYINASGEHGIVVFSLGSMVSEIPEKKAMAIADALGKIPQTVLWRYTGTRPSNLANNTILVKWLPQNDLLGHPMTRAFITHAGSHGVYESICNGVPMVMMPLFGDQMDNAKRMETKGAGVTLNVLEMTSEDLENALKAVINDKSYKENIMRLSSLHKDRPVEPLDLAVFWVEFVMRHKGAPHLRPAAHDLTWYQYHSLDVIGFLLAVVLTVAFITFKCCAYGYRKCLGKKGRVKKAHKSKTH

[19] = Aqueous solubility of compound at pH 4 by UPLC analysis; assay type: physicochemical; conditions: buffer
[20] = AUClast in Sprague-Dawley rat at 1 ml/kg,iv measured upto 24 hrs by UPLC-MS/MS analysis; assay type: ADME; design: dose 1 ml/kg, time < 24 hrs, route iv; conditions: in vivo
[21] = Relative Cmax ratio of Atazanavir in Sprague-Dawley rat at 3 ml/kg,po measured upto 24 hrs by UPLC-MS/MS analysis; assay type: ADME; conditions: in vivo
[22] = Cmax in Sprague-Dawley rat at 1 ml/kg,iv measured upto 24 hrs by UPLC-MS/MS analysis; assay type: ADME; design: dose 1 ml/kg, time < 24 hrs, route iv; conditions: in vivo
[23] = target: T1, UDP-glucuronosyltransferase 1A1; test: Inhibition of human recombinant UGT1A1 using bilirubin as substrate incubated for 40 mins by LC-MS/MS analysis
[24] = Aqueous stability of the compound in phosphate buffer at pH 6.5 assessed as compound half life measured after 24 hrs by UPLC analysis; assay type: physicochemical; conditions: buffer, pH 6.5, 24 h, 24 h
[25] = Relative AUC ratio of Atazanavir in Sprague-Dawley rat at 1 ml/kg,iv measured upto 24 hrs by UPLC-MS/MS analysis; assay type: ADME; conditions: in vivo
[26] = Fold ratio of total AUC of Atazanavir in Sprague-Dawley rat at 3 ml/kg,po measured upto 24 hrs by UPLC-MS/MS analysis; assay type: ADME; conditions: in vivo
[27] = Ratio of AUC of Atazanavir in Sprague-Dawley rat at 25 ml/kg,po measured upto 24 hrs by UPLC-MS/MS analysis; assay type: ADME; conditions: in vivo
[28] = AUClast in Sprague-Dawley rat at 3 ml/kg,po measured upto 24 hrs by UPLC-MS/MS analysis; assay type: ADME; design: time < 24 hrs, dose 3 ml/kg, route po; conditions: in vivo
[29] = Ratio of AUC of Atazanavir in Sprague-Dawley rat at 3 ml/kg,po measured upto 24 hrs by UPLC-MS/MS analysis; assay type: ADME; conditions: in vivo
[30] = Ratio of AUC of Atazanavir in Sprague-Dawley rat at 1 ml/kg,iv measured upto 24 hrs by UPLC-MS/MS analysis; assay type: ADME; conditions: in vivo
[31] = Cmax in Sprague-Dawley rat at 3 ml/kg,po measured upto 24 hrs by UPLC-MS/MS analysis; assay type: ADME; design: dose 3 ml/kg, time < 24 hrs, route po; conditions: in vivo
[32] = Aqueous stability of the compound in acetate buffer at pH 4 assessed as compound half life measured after 24 hrs by UPLC analysis; assay type: physicochemical; conditions: buffer, pH 4, 24 h, 24 h
[33] = Volume of distribution at steady state in Sprague-Dawley rat at 1 ml/kg,iv measured upto 24 hrs by UPLC-MS/MS analysis; assay type: ADME; conditions: in vivo, read-out: Vdss
[34] = Cmax in Sprague-Dawley rat at 30 ml/kg,po measured upto 24 hrs by UPLC-MS/MS analysis; assay type: ADME; design: time < 24 hrs, dose 30 ml/kg, route po; conditions: in vivo
[35] = Relative AUC ratio of Atazanavir in Sprague-Dawley rat at 30 ml/kg,po measured upto 24 hrs by UPLC-MS/MS analysis; assay type: ADME; conditions: in vivo
[36] = Fold ratio of total AUC of Atazanavir in Sprague-Dawley rat at 30 ml/kg,po measured upto 24 hrs by UPLC-MS/MS analysis; assay type: ADME; conditions: in vivo
[37] = AUClast in Sprague-Dawley rat at 30 ml/kg,po measured upto 24 hrs by UPLC-MS/MS analysis; assay type: ADME; design: time < 24 hrs, dose 30 ml/kg, route po; conditions: in vivo
[38] = Tmax in Sprague-Dawley rat at 30 ml/kg,po measured upto 24 hrs by UPLC-MS/MS analysis; assay type: ADME; conditions: in vivo
[39] = Ratio of Cmax/Cmin of Atazanavir in Sprague-Dawley rat at 30 ml/kg,po measured after 24 hrs by UPLC-MS/MS analysis; assay type: ADME; conditions: in vivo
[40] = Ratio of AUC of Atazanavir in Sprague-Dawley rat at 30 ml/kg,po measured upto 24 hrs by UPLC-MS/MS analysis; assay type: ADME; conditions: in vivo
[41] = Relative Cmax ratio of Atazanavir in Sprague-Dawley rat at 30 ml/kg,po measured upto 24 hrs by UPLC-MS/MS analysis; assay type: ADME; conditions: in vivo

Chain of Voltage-gated inwardly rectifying potassium channel KCNH2 (Q12809 whole entry): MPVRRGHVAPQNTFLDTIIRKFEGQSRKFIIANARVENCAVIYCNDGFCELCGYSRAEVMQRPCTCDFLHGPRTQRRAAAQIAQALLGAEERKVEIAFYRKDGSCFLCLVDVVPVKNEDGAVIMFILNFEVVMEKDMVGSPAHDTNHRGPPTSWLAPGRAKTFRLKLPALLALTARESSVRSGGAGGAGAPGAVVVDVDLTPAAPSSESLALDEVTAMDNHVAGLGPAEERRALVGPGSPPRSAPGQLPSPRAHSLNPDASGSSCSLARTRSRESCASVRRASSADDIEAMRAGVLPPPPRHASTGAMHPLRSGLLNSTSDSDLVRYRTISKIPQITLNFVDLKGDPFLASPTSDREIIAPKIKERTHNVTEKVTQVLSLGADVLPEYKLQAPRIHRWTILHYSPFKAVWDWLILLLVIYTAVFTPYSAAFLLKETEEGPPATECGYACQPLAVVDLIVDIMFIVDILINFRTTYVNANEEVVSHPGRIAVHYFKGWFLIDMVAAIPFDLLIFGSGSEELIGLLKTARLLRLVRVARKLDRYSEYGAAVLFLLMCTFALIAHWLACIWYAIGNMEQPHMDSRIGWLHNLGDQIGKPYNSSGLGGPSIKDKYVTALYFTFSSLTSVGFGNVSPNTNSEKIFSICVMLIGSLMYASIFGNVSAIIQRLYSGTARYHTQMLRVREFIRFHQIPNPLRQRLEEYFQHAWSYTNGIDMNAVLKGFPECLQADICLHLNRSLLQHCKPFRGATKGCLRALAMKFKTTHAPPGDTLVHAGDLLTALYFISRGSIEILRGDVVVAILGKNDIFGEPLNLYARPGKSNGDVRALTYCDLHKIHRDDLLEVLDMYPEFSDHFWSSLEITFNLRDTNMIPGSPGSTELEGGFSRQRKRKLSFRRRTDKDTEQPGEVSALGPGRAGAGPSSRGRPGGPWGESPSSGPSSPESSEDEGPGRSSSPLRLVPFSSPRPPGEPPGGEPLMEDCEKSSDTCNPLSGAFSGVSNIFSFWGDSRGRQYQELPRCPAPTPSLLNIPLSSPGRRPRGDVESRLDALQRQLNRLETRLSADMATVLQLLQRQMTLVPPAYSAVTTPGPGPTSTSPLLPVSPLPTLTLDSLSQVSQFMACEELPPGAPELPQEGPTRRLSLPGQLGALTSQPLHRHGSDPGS

SMILES | Ratio [1] | clearance [5] | half-life [6] | Ratio [8] | Ratio [10] | Ratio [13] | solubility [15] | Ratio [16] | solubility [19] | AUC(0-t) at 24 h [20] | Ratio [21] | Cmax [22] | t1/2 [24] | Ratio [25] | Ratio [26] | Ratio [29] | Ratio [30] | t1/2 [32] | Vd [33] | other results
COC(=O)N[C@H](C(=O)N[C@@H](Cc1ccccc1)[C@H](CN(Cc1ccc(-c2ccccn2)cc1)NC(=O)[C@@H](NC(=O)OC)C(C)(C)C)OC(=O)OC(OC(=O)[C@H](N)C(C)C)C(C)C)C(C)(C)C (stereo in doubt; 5j) | 7.8 | 47 mL/min/kg | 240 min | 431.7 | 17.7 | 1.01 | > 1.9 mg/mL | 86.9 | > 1.9 mg/mL | 0.356 µM·h | 8.2 | 371 nM | 15.3 h | 7.3 | 18 | 0.02 | 0.08 | 13.93 days | 7.7 L/kg | Ratio [2]: 27.8; Tmax ([3]; po, 24 h): 0.4 h; AUC(0-t) at 24 h [4]: 1.23 µM·h; Tmax [7]: 2.3 h; Ratio [9]: 1.88; Ratio [11]: 1; IC50 [12]: 8.8 µM; Cmax [14]: 123 nM; Ratio [17]: 1.94; IC50 [18]: 2100 nM; IC50 [23]: 1000 nM; Ratio [27]: 0.03; AUClast ([28]; 24 h): 120 nM·h; Cmax ([31]; 24 h): 93 nM
COC(=O)N[C@H](C(=O)N[C@@H](Cc1ccccc1)[C@H](CN(Cc1ccc(-c2ccccn2)cc1)NC(=O)[C@@H](NC(=O)OC)C(C)(C)C)OC(=O)OC(OC(=O)[C@@H](NC(=O)[C@H](N)C(C)C)C(C)C)C(C)C)C(C)(C)C (stereo in doubt; 6h) | 18.8 | 2 mL/min/kg | 420 min | 22.8 | 7.3 | 0.11 | > 2 mg/mL | 6.4 | > 1.3 mg/mL | 10.5 µM·h | 1 | 2180 nM | 9.2 h | 2.3 | 111.7 | 14.4 | 7.31 | 13.93 days | 1 L/kg | Cmax [34]: 4.13 µM; Ratio [35]: 0.29; Tmax ([3]; Sprague-Dawley, read-out: Tmax): 3 h; Ratio [36]: 3.56; AUC(0-t) at 24 h [37]: 68.3 µM·h; Tmax [38]: 3 h; Ratio [39]: 5.8; Ratio [40]: 11.46; AUC(0-t) at 24 h ([28]; Sprague-Dawley, 3 ml/kg): 40.1 µM·h; Ratio [41]: 0.08; Cmax ([31]; Sprague-Dawley, 3 ml/kg): 3060 nM
